Source: ChEMBL document CHEMBL3886330, “Substituted azoanthracene derivatives and intermediates for preparation thereof” (2015)

Biological target: Glucagon-like peptide 1 receptor (Homo sapiens, UniProt P43220)
Format: functional

Glucagon-like peptide 1 receptor, sequence (P43220 whole entry): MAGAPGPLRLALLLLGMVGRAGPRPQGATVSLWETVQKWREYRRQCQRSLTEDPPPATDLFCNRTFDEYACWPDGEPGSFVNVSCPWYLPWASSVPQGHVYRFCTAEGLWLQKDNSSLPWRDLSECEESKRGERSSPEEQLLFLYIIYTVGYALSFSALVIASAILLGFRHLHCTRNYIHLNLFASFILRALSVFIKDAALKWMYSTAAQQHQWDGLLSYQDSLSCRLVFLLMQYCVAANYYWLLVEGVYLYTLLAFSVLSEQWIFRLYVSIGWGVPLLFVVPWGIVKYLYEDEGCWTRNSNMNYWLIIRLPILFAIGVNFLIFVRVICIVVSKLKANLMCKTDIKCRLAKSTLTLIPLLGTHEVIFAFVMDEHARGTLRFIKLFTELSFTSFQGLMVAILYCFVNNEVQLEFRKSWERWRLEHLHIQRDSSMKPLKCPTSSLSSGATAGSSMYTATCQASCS

Compound	EC50
CCCNc1nc(C)c(S(=O)(=O)N2Cc3cc4c(cc3C[C@H]2C(=O)N[C@@H](Cc2ccc(-c3ccc(C#N)cc3)cc2)C(=O)O)OCC(c2ccc(OCc3ccc(Cl)c(Cl)c3)cc2)O4)s1 (stereo partly specified)	67 nM
CCCCOC(=O)N1Cc2cc3c(cc2C[C@H]1C(=O)N[C@@H](Cc1ccc(-c2ccnc(C)c2C)cc1)C(=O)O)OC[C@H](c1ccc(OCc2ccc(Cl)c(Cl)c2)cc1)O3	64 nM
Cc1nccc(Oc2ccc(C[C@H](NC(=O)[C@@H]3Cc4cc5c(cc4CN3C(=O)OCC(C)C)O[C@@H](c3ccc(OCc4ccc(Cl)c(Cl)c4)cc3)CO5)C(=O)O)cc2)c1C	311 nM
Cc1nccc(-c2ccc(C[C@H](NC(=O)[C@@H]3Cc4cc5c(cc4CN3C(=O)N(C(C)C)C(C)C)O[C@@H](c3ccc(OCc4ccc(Cl)c(Cl)c4)cc3)CO5)C(=O)O)cc2)c1C	73 nM
CCNc1nc(C)c(S(=O)(=O)N2Cc3cc4c(cc3C[C@H]2C(=O)N[C@@H](Cc2ccc(-c3ccc(Cl)cc3)cc2)C(=O)O)OCC(c2ccc(OCc3ccc(Cl)c(Cl)c3)cc2)O4)s1 (stereo partly specified)	264 nM
Cc1nccc(-c2ccc(C[C@H](NC(=O)[C@@H]3Cc4cc5c(cc4CN3S(C)(=O)=O)O[C@@H](c3ccc(OCc4ccc(Cl)c(Cl)c4)cc3)CO5)C(=O)O)cc2)c1C	267 nM
Cc1nc(C(=O)N2Cc3cc4c(cc3C[C@H]2C(=O)N[C@@H](Cc2ccc(Oc3ccnc(C)c3C)cc2)C(=O)O)OC[C@H](c2ccc(OCc3ccc(Cl)c(Cl)c3)cc2)O4)co1	177 nM
Cc1nccc(-c2ccc(C[C@H](NC(=O)[C@@H]3Cc4cc5c(cc4CN3C(=O)OCc3ccccc3)O[C@@H](c3ccc(OCc4ccc(Cl)c(Cl)c4)cc3)CO5)C(=O)O)cc2)c1C	23 nM
Cc1nccc(-c2ccc(C[C@H](NC(=O)[C@@H]3Cc4cc5c(cc4CN3C(=O)OCC(C)(C)C)O[C@@H](c3ccc(OCc4ccc(Cl)c(Cl)c4)cc3)CO5)C(=O)O)cc2)c1C	87 nM
Cc1nc(C(=O)N2Cc3cc4c(cc3C[C@H]2C(=O)N[C@@H](Cc2ccc(-c3ccnc(C)c3C)cc2)C(=O)O)OC[C@H](c2ccc(OCc3ccc(Cl)c(Cl)c3)cc2)O4)c(C(F)(F)F)o1	42 nM
CC[C@@H](c1ccccc1)N1Cc2cc3c(cc2C[C@H]1C(=O)N[C@@H](Cc1ccc(-c2ccc(C#N)nc2)cc1)C(=O)O)OC[C@H](c1ccc(OCc2ccc(Cl)c(Cl)c2)cc1)O3	154 nM
Cc1nc(NCC2CC2)sc1S(=O)(=O)N1Cc2cc3c(cc2C[C@H]1C(=O)N[C@@H](Cc1ccc(-c2ccc(C#N)cc2)cc1)C(=O)O)OCC(c1ccc(OCc2ccc(Cl)c(Cl)c2)cc1)O3 (stereo partly specified)	75 nM
Cc1nccc(-c2ccc(C[C@H](NC(=O)[C@@H]3Cc4cc5c(cc4CN3C(=O)Nc3ccc(Cl)cc3)O[C@@H](c3ccc(OCc4ccc(Cl)c(Cl)c4)cc3)CO5)C(=O)O)cc2)c1C	96 nM
Cc1nc(C(=O)N2Cc3cc4c(cc3C[C@H]2C(=O)N[C@@H](Cc2ccc(-c3ccc(C#N)cc3)cc2)C(=O)O)OC[C@H](c2ccc(OCc3ccc(Cl)c(Cl)c3)cc2)O4)c(C)o1	156 nM
CCc1cc(-c2ccc(C[C@H](NC(=O)[C@@H]3Cc4cc5c(cc4CN3[C@@H](CC)c3ccccc3)O[C@@H](c3ccc(OCc4ccc(Cl)c(Cl)c4)cc3)CO5)C(=O)O)cc2)ccn1	13 nM
CCNc1nc(C)c(S(=O)(=O)N2Cc3cc4c(cc3C[C@H]2C(=O)N[C@@H](Cc2ccc(-c3ccc(F)cc3)cc2)C(=O)O)OCC(c2ccc(OCc3ccc(Cl)c(Cl)c3)cc2)O4)s1 (stereo partly specified)	131 nM

Compound	EC50
Cc1nccc(-c2ccc(C[C@H](NC(=O)[C@@H]3Cc4cc5c(cc4CN3C(=O)c3oc4ccccc4c3C)O[C@@H](c3ccc(OCc4ccc(Cl)c(Cl)c4)cc3)CO5)C(=O)O)cc2)c1C	172 nM
Cc1nc(NC2CCCC2)sc1S(=O)(=O)N1Cc2cc3c(cc2C[C@H]1C(=O)N[C@@H](Cc1ccc(-c2ccc(C#N)cc2)cc1)C(=O)O)OCC(c1ccc(OCc2ccc(Cl)c(Cl)c2)cc1)O3 (stereo partly specified)	70 nM
Cc1nccc(-c2ccc(C[C@H](NC(=O)[C@@H]3Cc4cc5c(cc4CN3C(=O)c3cnccn3)O[C@@H](c3ccc(OCc4ccc(Cl)c(Cl)c4)cc3)CO5)C(=O)O)cc2)c1C	166 nM
CC[C@@H](c1ccccc1)N1Cc2cc3c(cc2C[C@H]1C(=O)N[C@@H](Cc1ccc(-c2ccnc(C)c2)cc1)C(=O)O)OC[C@H](c1ccc(OCc2ccc(Cl)c(Cl)c2)cc1)O3	20 nM
Cc1ccc(COc2ccc(C3COc4cc5c(cc4O3)CN(S(=O)(=O)c3sc(N)nc3C)[C@H](C(=O)N[C@@H](Cc3ccc(-c4ccc(C#N)cc4)cc3)C(=O)O)C5)cc2)cc1Cl (stereo partly specified)	434 nM
Cc1nccc(-c2ccc(C[C@H](NC(=O)[C@@H]3Cc4cc5c(cc4CN3C(=O)c3cccc(Cl)c3)O[C@@H](c3ccc(OCc4ccc(Cl)c(Cl)c4)cc3)CO5)C(=O)O)cc2)c1C	22 nM
N#Cc1ccc(-c2ccc(C[C@H](NC(=O)[C@@H]3Cc4cc5c(cc4CN3C(=O)c3ccccc3)OC(c3ccc(OCc4ccc(Cl)c(Cl)c4)cc3)CN5)C(=O)O)cc2)cc1 (stereo partly specified)	410 nM
CC(=O)Nc1nc(C)c(S(=O)(=O)N2Cc3cc4c(cc3C[C@H]2C(=O)N[C@@H](Cc2ccc(-c3ccnc(C)c3C)cc2)C(=O)O)OC[C@H](c2ccc(OCc3ccc(Cl)c(Cl)c3)cc2)O4)s1	24 nM
CC[C@@H](c1ccccc1)N1Cc2cc3c(cc2C[C@H]1C(=O)N[C@@H](Cc1ccc(-c2ccnc(F)c2)cc1)C(=O)O)OC[C@H](c1ccc(OCc2ccc(Cl)c(Cl)c2)cc1)O3	222 nM
CCCc1cc(-c2ccc(C[C@H](NC(=O)[C@@H]3Cc4cc5c(cc4CN3[C@@H](CC)c3ccccc3)O[C@@H](c3ccc(OCc4ccc(Cl)c(Cl)c4)cc3)CO5)C(=O)O)cc2)ccn1	83 nM
N#Cc1ccc(-c2ccc(C[C@H](NC(=O)[C@@H]3Cc4cc5c(cc4CN3Cc3ccccc3C#N)OC(c3ccc(OCc4ccc(Cl)c(Cl)c4)cc3)CO5)C(=O)O)cc2)cc1 (stereo partly specified)	657 nM
Cc1nccc(-c2ccc(C[C@H](NC(=O)[C@@H]3Cc4cc5c(cc4CN3C(=O)N[C@H](C)c3ccccc3)O[C@@H](c3ccc(OCc4ccc(Cl)cc4Cl)cc3)CO5)C(=O)O)cc2)c1C	133 nM
Cc1nccc(Oc2ccc(C[C@H](NC(=O)[C@@H]3Cc4cc5c(cc4CN3C(=O)N[C@H](C)c3ccccc3)O[C@@H](c3ccc(OCc4ccc(Cl)c(Cl)c4)cc3)CO5)C(=O)O)cc2)c1C	115 nM
CC[C@@H](NC(=O)N1Cc2cc3c(cc2C[C@H]1C(=O)N[C@@H](Cc1ccc(-c2ccnc(C)c2C)cc1)C(=O)O)OC[C@H](c1ccc(OCc2ccc(Cl)c(Cl)c2)cc1)O3)c1ccccc1	126 nM
C[C@@H](NC(=O)N1Cc2cc3c(cc2C[C@H]1C(=O)N[C@@H](Cc1ccc(-c2ccc(C#N)cc2)cc1)C(=O)O)OC[C@H](c1ccc(OCc2ccc(Cl)c(Cl)c2)cc1)O3)c1ccccc1	288 nM
